Measured values as given in the supplement of paper PMC10307832.

Legend:
[1] = compound: CCOC(=O)CCNc1cc(N2CCc3ccccc3CC2)nc(-c2ccccn2)n1 [GSK-J4] + O=C(CCCCCCC(=O)Nc1ccccc1)NO [Vorinostat] (partner 1 µM); test: relative viability (nuclei count vs DMSO), 5 days (fraction); higher = more cells survive
In short: (§1)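 Lung cancer cell lines were pin-tool dosed in 1536-well plates on the day after seeding, with either a lone drug or a fixed anchor-drug dose plus five library-drug doses (not always all listed) in √10 steps. Nuclei were counted on 4× images after 5 days. Relative viability is the ratio of treated-well to vehicle-well nuclei counts, with each value a median of duplicate plates.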

[2] = compound: CCOC(=O)CCNc1cc(N2CCc3ccccc3CC2)nc(-c2ccccn2)n1 [GSK-J4] + NC(=O)Nc1cc(-c2cccc(F)c2)sc1C(=O)N[C@H]1CCCNC1 [AZD7762] (partner 0.2 µM); test: as above
In short: as §1

Cell Line	relative viability ([1]; first compound 0.5 µM)	relative viability ([1]; first compound 1.581 µM)	relative viability ([1]; first compound 5 µM)	relative viability ([1]; first compound 15.81 µM)	relative viability ([1]; first compound 50 µM)	relative viability ([2]; first compound 0.5 µM)	relative viability ([2]; first compound 1.581 µM)	relative viability ([2]; first compound 5 µM)	relative viability ([2]; first compound 15.81 µM)	relative viability ([2]; first compound 50 µM)
201T	0.927	0.828	0.939	0.896	0.891	0.602	0.673	0.581	0.561	0.609
A-427	0.814	0.518	–	0.785	0.393	0.684	0.441	–	0.576	0.328
ABC-1	1.2	1.31	0.879	0.704	0.555	0.784	0.784	0.955	0.666	0.445
BEN	0.559	0.46	0.511	0.571	0.505	0.694	0.634	0.441	0.567	0.426
CAL-12T	0.723	0.693	0.874	0.689	0.682	0.705	0.646	0.557	0.649	0.675
COR-L23	0.474	0.442	–	0.413	0.361	–	–	–	–	–
COR-L 105	0.899	–	0.833	0.843	0.526	–	–	–	–	–
ChaGo-K-1	0.785	–	0.619	0.673	0.668	0.873	–	0.774	0.912	0.766
EKVX	0.686	–	0.808	–	0.524	0.714	–	0.732	0.669	0.535
EMC-BAC-2	0.494	0.497	–	0.364	0.457	1.12	0.831	–	1.07	0.893
EPLC-272H	0.461	0.37	0.599	0.335	0.284	0.206	0.23	0.162	0.138	0.147
H3255	0.716	–	0.656	0.742	0.742	0.827	0.791	0.727	0.791	0.656
HARA	0.554	0.498	–	0.311	0.246	0.349	0.36	–	0.218	0.161
HCC-15	0.903	0.791	0.789	0.718	0.503	1.19	1.09	1.12	0.982	1.22
HCC-44	1.01	1.09	1.09	1.14	1.16	0.95	0.939	0.962	1.11	1.05
HCC-78	0.462	0.435	0.601	0.363	0.587	0.686	0.702	0.874	0.485	0.583
HCC-366	0.284	0.287	–	0.285	0.34	0.325	0.258	–	0.226	0.312
HCC-827	0.873	0.731	0.782	0.774	0.787	0.203	0.565	0.252	0.197	0.21
